Assay type in all cases: cell-based
One experiment concerns the target CXCR2 receptor (Homo sapiens (Human), UniProt P25025). The experiment is described as follows: β-arrestin recruitment test, PathHunter HEK293-CXCR2 cells stimulated with CXCL8. Particulars: CXCL8 10 nM. The protocol:
(§1) The in vitro affinity of the compounds of the present invention for the CXCR1 and CXCR2 receptors is determined on a functional test of β-arrestin recruitment type after activation of the receptor.
(§2) To evaluate the direct interaction of the CXCR2 or CXCR1 receptor with β-arrestin 2, a test of β-arrestin 2 recruitment for CXCR2 or CXCR1 based on complementation of the β-galactosidase enzyme (Olson K. R., Eglen R. M., Beta-galactosidase complementation: a cell-based luminescent assay platform for drug discovery. Assay Drug Dev. Technol. 2007 February; 5(1); 137-44), as established by DiscoveRx Corporation was used. Stimulation of these two cell lines with CXCL8 (10 nM) induces the recruitment of β-arrestin 2, as indicated by a significant increase in the induction factor. All the CXCR2 antagonists are tested in a dose-dependent manner and the concentration corresponding to 50% inhibition of the response is determined (IC50=concentration of half-inhibition).
(§3) β-Arrestin Recruitment Test: “PathHunter HEK293-CXCR2” or “U20S hCXCR1 β-arrestin” cells (DiscoveRx Corporation) were seeded overnight at 10 000 cells/well (384-well format) in 20 μl of Opti MEM I medium. Preincubation with the antagonist or the vehicle for 30 minutes at 37° C. and 5% CO2 was followed by 60 minutes of stimulation with CXCL8 at 37° C. and 5% CO2. The cells were then placed at room temperature for 30 minutes. The PathHunter detection reagent (DiscoveRx Corporation) was added. After incubation for 60 minutes at room temperature, the β-galactosidase induced by the luminescence during the β-arrestin-CXCR2 interaction was measured for 0.3 s in an Envision 2102 Multilabel Reader (PerkinElmer Life and Analytical Sciences). The data are analysed via a non-linear curve procedure using the XLFit4 (IDBS) exploitation software, and the IC50 values are determined.
For orientation: Arrestin recruitment assays detect the binding of arrestin to an activated receptor.

In the next experiment the target is CXCR1 receptor (Homo sapiens (Human), UniProt P25024). The experiment is described as follows: β-arrestin recruitment test, U2OS hCXCR1 β-arrestin cells stimulated with CXCL8. Particulars: CXCL8 10 nM. On the procedure:
as §1, §2, §3

For a further experiment, the system named is human neutrophils. Briefly: Neutrophil migration (chemotaxis assay, Transwell, IL-8). Particulars: 10 nM IL-8, 1 hour incubation. On the procedure:
Purification and culturing of human neutrophils Peripheral blood preparations (18-24 hours) are collected in duly registered clinics or clinical laboratories from healthy volunteers who consented to the re-use of their blood for scientific research (Supplier: Biopredic International). The neutrophils are separated from the whole blood via a positive selection (Whole Blood CD15 MicroBeads: MiltenyiBiotech, Reference: 130-091-058). The cells are resuspended at a rate of 4×10^6 cells per mL in RPMI 1640 culture medium (Invitrogen) supplemented with filtered and heat-inactivated 5% foetal calf serum (FCS) (Invitrogen).
The experiments were performed in “HTS Transwell 96 Well Permeable Supports 3-μm pore size” filter plates (Corning, Reference: 3386). The response doses of CXCRS antagonists are applied in the lower compartments of the plates in the presence of 10 nM of IL-8 (1-72 aa, R&D Systems, Cat. No. IL-208). The neutrophils are then seeded in the upper compartment (2×10^5 cells/well). After 1 hour of incubation at 37° C. and 5% CO2, the number of viable cells that have crossed the membrane and are in the lower compartment is determined via a colorimetric method (CellTiter 96® AQueous One Solution Cell Proliferation Assay—PROMEGA Cat # G3581). Each treatment condition is evaluated in duplicate. The IC50 values are calculated with the XLFit4 software.

[1] abbreviates: Homo sapiens, Neutrophil, class symbols, read-out: Migration of human neutrophils IC50.
Where [2] appears, read: Homo sapiens, Neutrophil, read-out: Migration of h neutrophils IC50.

SMILES strings stand for the structures. Where two headings read alike, the source gives them in different places.

CXCR2 receptor, sequence (P25025 whole entry): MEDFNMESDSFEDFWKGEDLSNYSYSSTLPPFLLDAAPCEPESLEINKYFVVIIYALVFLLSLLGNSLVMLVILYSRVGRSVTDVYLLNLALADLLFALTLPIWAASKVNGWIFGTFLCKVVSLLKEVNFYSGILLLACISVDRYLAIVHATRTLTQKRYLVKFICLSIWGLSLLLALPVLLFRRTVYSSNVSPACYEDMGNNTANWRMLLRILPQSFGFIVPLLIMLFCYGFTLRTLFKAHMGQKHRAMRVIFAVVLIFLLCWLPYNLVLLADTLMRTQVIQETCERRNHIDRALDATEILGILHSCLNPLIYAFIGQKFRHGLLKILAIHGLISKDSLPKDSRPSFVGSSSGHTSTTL
CXCR1 receptor, sequence (P25024 whole entry): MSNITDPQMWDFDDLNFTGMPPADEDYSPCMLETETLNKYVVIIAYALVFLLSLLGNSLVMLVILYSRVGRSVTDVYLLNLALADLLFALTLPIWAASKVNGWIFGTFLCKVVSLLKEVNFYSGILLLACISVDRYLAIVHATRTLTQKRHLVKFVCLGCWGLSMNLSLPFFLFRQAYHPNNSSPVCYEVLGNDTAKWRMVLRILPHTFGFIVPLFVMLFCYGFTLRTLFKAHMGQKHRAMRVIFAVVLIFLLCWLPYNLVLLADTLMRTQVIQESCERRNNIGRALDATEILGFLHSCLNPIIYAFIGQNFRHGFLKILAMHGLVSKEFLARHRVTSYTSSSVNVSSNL

As to `CC[C@@H](Nc1c(Nc2ccc(Cl)c(S(C)(=O)=NC)c2O)c(=O)c1=O)c1ccccn1` (single isomer, unassigned; (+)) [Example 13], the results for the IC50 against CXCR2 receptor (class symbols) and against CXCR1 receptor (class symbols) were not below 20 nM and not below 200 nM, respectively.
With `CC[C@@H](Nc1c(Nc2cccc(S(C)(=O)=NC)c2O)c(=O)c1=O)c1ccc(C)o1` (single isomer, unassigned; (+)) [Example 16], the IC50 is 18 nM against CXCR2 receptor; less than 20 nM against CXCR2 receptor (class symbols); not below 300 nM in the experiment with human neutrophils (setting [1]); 356 nM with human neutrophils (setting [2]); 36 nM on CXCR1 receptor.
`CC[C@@H](Nc1c(Nc2cccc(S(C)(=O)=NC)c2O)c(=O)c1=O)c1ccc(C)o1` (single isomer, unassigned; (+)) [Example 17] showed an IC50 against CXCR1 receptor (class symbols) not below 200 nM.
`CC[C@@H](Nc1c(Nc2ccc(Cl)c(S(C)(=O)=NC)c2O)c(=O)c1=O)c1ccc(C)o1` (single isomer, unassigned; (+)) [Example 20]: the figures for the IC50 at CXCR2 receptor (class symbols), with human neutrophils (setting [1]) and against CXCR1 receptor (class symbols) were less than 20 nM, less than 300 nM and less than 200 nM, respectively.
In the case of `CC[C@@H](Nc1c(Nc2ccc(Cl)c(S(C)(=O)=NC)c2O)c(=O)c1=O)c1ccccn1` (single isomer, unassigned; (-)) [Example 12], the IC50 against CXCR2 receptor was 16 nM; against CXCR2 receptor (class symbols), less than 20 nM; with human neutrophils (setting [1]) it was less than 300 nM; in the experiment on human neutrophils (setting [2]), 82 nM; at CXCR1 receptor it was 28 nM; at CXCR1 receptor (class symbols), less than 200 nM.
In the case of `CC[C@@H](Nc1c(Nc2cccc(S(C)(=O)=NC)c2O)c(=O)c1=O)c1ccccn1` (single isomer, unassigned; (-)) [Example 14], the IC50 against CXCR2 receptor (class symbols) was not below 20 nM; in the experiment with human neutrophils (setting [1]), not below 300 nM; against CXCR1 receptor (class symbols), less than 200 nM.
On to `CC[C@@H](Nc1c(Nc2cccc(S(C)(=O)=NC)c2O)c(=O)c1=O)c1ccccn1` (single isomer, unassigned; (-)) [Example 15], for which the IC50 on CXCR1 receptor (class symbols) is not below 200 nM.
As for `CCC(CC)Nc1c(Nc2cccc(S(C)(=O)=NC)c2O)c(=O)c1=O` (single isomer, unassigned; (-)) [Example 18], the IC50 at CXCR2 receptor (class symbols) is not below 20 nM; with human neutrophils (setting [1]), not below 300 nM; against CXCR1 receptor (class symbols), not below 200 nM.
Take `CC[C@@H](Nc1c(Nc2ccc(Cl)c(S(C)(=N)=O)c2O)c(=O)c1=O)c1ccc(C)o1` (stereo partly drawn) [Example 1, 3-(4-Chloro-2-hydroxy-3-methanesulfoximinophenylamino)-4-[(R)-1-(5-methylfuran-2-yl)propylamino]cyclobut-3-ene-1,2-dione]: the IC50 at CXCR2 receptor (class symbols) is less than 20 nM; in the experiment on human neutrophils (setting [1]) it was less than 300 nM; against CXCR1 receptor (class symbols), less than 200 nM.
Take `CC[C@@H](Nc1c(Nc2ccc(Cl)c(S(C)(=O)=NC)c2O)c(=O)c1=O)c1ccc(C)o1` (stereo partly drawn) [Example 2, 3-{4-Chloro-2-hydroxy-3-methane[(N-methyl)sulfoximino]phenylamino}-4-[(R)-1-(5-methylfuran-2-yl)propylamino]cyclobut-3-ene-1,2-dione]: the IC50 in the experiment with human neutrophils (class symbols, read-out: Migration of human neutrophils IC50) is less than 300 nM.
For `CC[C@@H](Nc1c(Nc2ccc(Cl)c(S(C)(=O)=Nc3ccncc3)c2O)c(=O)c1=O)c1ccc(C)o1` (stereo partly drawn) [Example 3, 3-{4-Chloro-2-hydroxy-3-methane[(N-pyridin-4-yl)sulfoximino]phenylamino}-4-[(R)-1-(5-methylfuran-2-yl)propylamino]cyclobut-3-ene-1,2-dione], the IC50 is not below 20 nM on CXCR2 receptor (class symbols) and not below 200 nM against CXCR1 receptor (class symbols).
On the same counts, the results for `CCC(CC)Nc1c(Nc2ccc(Cl)c(S(C)(=O)=Nc3ccncc3)c2O)c(=O)c1=O` (stereo not shown) [Example 4, 3-{4-Chloro-2-hydroxy-3-methane[(N-pyridin-4-yl)sulfoximino]phenylamino}-4-(1-ethylpropylamino)cyclobut-3-ene-1,2-dione] are not below 20 nM and not below 200 nM.
For `CN=S(C)(=O)c1c(Cl)ccc(Nc2c(N[C@@H](c3ccc(C)o3)[C@H]3CCCS3)c(=O)c2=O)c1O` (stereo partly drawn) [Example 5, 3-{4-Chloro-2-hydroxy-3-methane[(N-methyl)sulfoximino]phenylamino}-4-{[(S)-(5-methylfuran-2-yl)-(R)-tetrahydrothiophen-2-ylmethyl]amino}cyclobut-3-ene-1,2-dione], the values for the IC50 on CXCR2 receptor (class symbols), in the experiment with human neutrophils (setting [1]) and against CXCR1 receptor (class symbols) were not below 20 nM, less than 300 nM and less than 200 nM, respectively.
For `CS(=N)(=O)c1c(Cl)ccc(NC(=O)Nc2cccc(F)c2Cl)c1O` (stereo not shown) [Example 6, 1-(2-Chloro-3-fluorophenyl)-3-(4-chloro-2-hydroxy-3-methanesulfoximinephenyl)-urea], the IC50 against CXCR2 receptor (class symbols) was not below 20 nM; against CXCR1 receptor (class symbols) it was not below 200 nM.
For `CN=S(C)(=O)c1c(Cl)ccc(NC(=O)Nc2cccc(F)c2Cl)c1O` (stereo not shown) [Example 7, 1-(2-Chloro-3-fluorophenyl)-3-{4-chloro-2-hydroxy-3-methane[(N-methyl)sulfoximino]phenyl}urea], the figures for the IC50 on CXCR2 receptor (class symbols) and at CXCR1 receptor (class symbols) were not below 20 nM and not below 200 nM, respectively.
As to `CC[C@@H](Nc1c(Nc2cccc(S(C)(=O)=NC)c2O)c(=O)c1=O)c1ccc(C)o1` (stereo partly drawn) [Example 8, 3-{2-Hydroxy-3-methane[(N-methyl)sulfoximino]phenylamino}-4-[(R)-1-(5-methylfuran-2-yl)propylamino]cyclobut-3-ene-1,2-dione], the IC50 at CXCR2 receptor (class symbols) is not below 20 nM; with human neutrophils (setting [1]), not below 300 nM; at CXCR1 receptor (class symbols), less than 200 nM.
For `CCC(CC)Nc1c(Nc2ccc(Cl)c(S(C)(=O)=NCCN(C)C)c2O)c(=O)c1=O` (stereo not shown) [Example 10, 3-[4-Chloro-3-[N-(2-dimethylaminoethyl)-S-methylsulfonimidoyl]-2-hydroxyanilino]-4-(1-ethylpropylamino)cyclobut-3-ene-1,2-dione], the IC50 at CXCR2 receptor (class symbols) is not below 20 nM; against CXCR1 receptor (class symbols), not below 200 nM.
`CC[C@@H](Nc1c(Nc2ccc(Cl)c(S(C)(=O)=NCCOC)c2O)c(=O)c1=O)c1ccc(C)o1` (stereo partly drawn) [Example 11, 3-[4-Chloro-2-hydroxy-3-[N-(2-methoxyethyl)-S-methylsulfonimidoyl]anilino]-4-[[(1R)-1-(5-methyl-2-furyl)propyl]amino]cyclobut-3-ene-1,2-dione]: the IC50 was not below 20 nM at CXCR2 receptor (class symbols) and not below 200 nM at CXCR1 receptor (class symbols).

Values taken from patent US10647706B2, “Chemokine CXCR1 and CXCR2 receptor antagonist compounds, and use thereof in the treatment of chemokine-mediated pathologies” (GALDERMA RESEARCH & DEVELOPMENT, priority 2014, dated 2020).
